Earlier results in US8357388B2, “Drug depot implant designs and methods of implantation” (Warsaw Orthopedic, Inc., priority 2006, dated 2013).

System: PGE2 production
Conditions: in cell culture

COc1ccc2cc(CC(=O)O)ccc2c1 [6-methoxy-2-napthylacetic acid]
PGE2 production and local inflammation: suppress PGE2 production and local inflammation
